# Reference: patent US20030138773A1, “METHODS OF TRANSCRIPTIONALLY MODULATING GENE EXPRESSION” (priority 1989, published 2003)
# Assays:
# human G-CSF promoter = assay: G-CSF promoter-luciferase reporter, cell clone G21 (high-throughput screen); type: cell-based; conditions: 5 μg/ml; FIG. 42
# Description: A human bladder carcinoma cell line (U5637, ATCC number HTB 9) was used for transfection of plasmids containing the human Granulocyte-Colony Stimulating Factor (G-CSF) promoter (see below) and was maintained in RPMI medium supplemented with 10% FCS. For HTP screening, transfected 5637 clones were transferred to a serum free defined medium identical to that used for the NIH/3T3 clones.
# The sequences of OL-1, OL-2 and OL-5 recognize the G-CSF promoter region, OL-4 recognizes the first intron/exon junction and OL-3 recognizes sequences within the second exon (32). […]
# (§1) To assay for luciferase expression in transient expression assays in the various transfected clones, cells were incubated with various transcriptional inducers in serum free defined media, washed 3 times with Dulbecco's phosphate-buffered saline (D-PBS, Gibco) and lysed in Lysis Buffer 1 (50 mM Tris acetate pH 7.9, 1 mM EGTA, 10 mM magnesium acetate, 1 mg/ml bovine serum albumin [BSA], 0.5% Brij 58, 2 mM ATP, 100 mM dithiothreitol [DTT]). […] Samples were counted individually in an LKB (Gaithersburg, Md.) scintillation counter on a setting which allows measurement of individual photons by switching off the coincidence circuit. […]
# [1] = tested on: mouse mammary tumor virus (MMTV) promoter; assay: MMTV promoter-luciferase reporter, cell clone M10 (high-throughput screen); type: cell-based; conditions: for stimulation of the MMTV promoter in cell clone M10 by steroids: FIG. 43
# Description: NIH/3T3 fibroblast cells (ATCC number CRL 1658) were used for transfection of plasmids containing the mouse mammary tumor virus (MMTV) promoter linked to firefly luciferase coding sequences (see below). Cells were propagated in Dulbecco's modified Eagle's medium (DMEM) obtained from Gibco, Grand Island, N.Y. and supplemented with 10% FCS. For high-throughput (HTP) screening, transfected NIH/3T3 clones were transferred to serum free defined medium consisting of Iscove's modified Eagle's medium (IMEM) and Ham's F12 medium (1:1) supplemented with growth factors, hormones and nutrients as described previously (43).
# The firefly luciferase gene was removed from the plant expression plasmid pDO432 (33) (FIG. 1) as a 1.9 kb BamHI fragment and cloned into the BamHI site of pSVL (Pharmacia, Piscataway, N.J.), a mammalian expression vector containing the SV40 promoter. The resulting plasmid (pSVLuci; FIG. 2) was digested with XhoI and SalI to produce a 2.4 kb fragment containing the luciferase coding sequences and the SV40 late polyadenylation site. This fragment was inserted into the XhoI site of pMSG (Pharmacia, Piscataway, N.J.), a eukaryotic expression vector containing the MMTV promoter. The resulting MMTV promoter-luciferase fusion plasmid (pMLuci; FIG. 3) was used to transfect NIH/3T3 cells as described below (section El). Similar constructs can be made using luciferase vectors from Clontech (Palo Alto, Calif.).
# pMluci (FIG. 3) and pSV2Neo, an antibiotic resistance plasmid (34), were co-transfected into NIH/3T3 mouse fibroblast cells using the calcium phosphate precipitation method (15) with a commercially available kit (Pharmacia, Piscataway N.J.). […] Once sufficient cell numbers were obtained, clones were analyzed based on several criteria: constitutive luciferase production, induction of luciferase expression by dexamethasone (1 μM, Sigma, St. Louis, Mo.), satisfactory attachment to microtiter plates used in the high-throughput screen (see section G) and acceptable standard deviation in multiple luciferase expression assays (see below for assay protocol). […]
# [2] = tested on: human growth hormone promoter; assay: hGH promoter-luciferase reporter, cell clone 532 (high-throughput screen); type: cell-based; conditions: 100 nM; FIG. 42
# Description: A rat pituitary cell line, designated GC, (4, 25) was used for transfection of plasmids containing the human growth hormone promoter (see below) and was maintained in DMEM and Ham's F12 medium (1:1), supplemented with 12.5% FCS. For HTP screening, transfected GC clones were transferred to serum free defined medium consisting of DMEM and Ham's F12 medium (1:1) supplemented with growth factors, hormones and nutrients as described previously (17, 5).
# The SalI-XhoI fragment of pSVLuci (FIG. 2) containing the luciferase coding sequences and the SV40 late polyadenylation site was inserted into pUC 8 (Biorad, Richmond, Calif.), which had been linearized by a SmaI/HinCII digestion and ligated to XhoI linkers (New England Biolabs, Beverly, Mass.). […]
# as §1
# G-CSF mRNA = assay: Northern blot of endogenous G-CSF mRNA in 5637 cells; type: cell-based, human; conditions: G-CSF-specific probe, compared to solvent DMSO, FIG. 46
# Protocol: Total cellular RNA was isolated from the G21 cell clone or from untransfected 5637 cells following incubation for 6 hours with various transcriptionally modulating chemicals identified in the high-throughput screen. Cells were grown in serum free medium as described above. Total cellular RNA was isolated using the RNAZol method (CINNA/BIOTECX, Friendswood, Tex., Laboratories International, Inc.). Cells were resuspended and lysed with RNAZol solution (1.5 ml/9 cm petri dish) and the RNA was solubilized by passing the lysate a few times through a pipette. Chloroform was added to the homogenate (0.1 ml/1 ml), and samples were shaken for 15 seconds followed by a 5 minute incubation on ice. After centrifuging for 10 minutes, the upper phase was collected and an equal volume of isopropanol was added. Samples were incubated for 45 minutes at −20° C., and the RNA was pelleted for 15 minutes at 12,000×g at 4° C. The RNA pellet was then washed with 70% ethanol and dried briefly under vacuum.
# Total cellular RNA was isolated from 5637 cells following incubation with chemicals as described above and electrophoresed in a 1% Agarose-1M Formaldehyde gel. […] Bands were excised and counted in a liquid scintillation counter (LKB, Gaithersburg, Md.), and counts obtained with the G-CSF specific probe were normalized relative to the counts obtained with the B-Actin specific probe.
compound,measurement,setting,value
lipopolysaccharide,"stimulation of luciferase expression, clone G21",human G-CSF promoter,5.7 fold
CC(=O)[C@H]1CC[C@H]2[C@@H]3CCC4=CC(=O)CC[C@]4(C)[C@H]3CC[C@]12C [progesterone],stimulation of the MMTV promoter in cell clone M10 by steroids,[1],did not
C[C@@H]1C[C@H]2[C@@H]3CCC4=CC(=O)C=C[C@]4(C)[C@@]3(F)[C@@H](O)C[C@]2(C)[C@@]1(O)C(=O)CO [dexamethasone],"stimulation of luciferase expression, clone M10","[1]; 1 μM, FIG. 42",11.6 fold
"rat growth hormone releasing factor: known inducer of hGH expression (Bachem) (HADAIFTSSYRRILGQLYARKLLHEIMNRQQGERNQEQRSRFN; Somatoliberin; UniProt P09916 31-73, looked up)","stimulation of luciferase expression, clone 532",[2],2.2 fold
IFN-gamma: a proteinaceous positive regulator,production of endogenous G-CSF mRNA,G-CSF mRNA,increased
C[C@]12CCC(=O)C=C1CC[C@@H]1[C@@H]2[C@@H](O)C[C@]2(C=O)[C@@H](C(=O)CO)CC[C@@H]12 [aldosterone],stimulation of the MMTV promoter in cell clone M10 by steroids,[1],stimulates
